The assay deals with migraine and tension headaches. The assay can be described thus: treatment of pain from migraine and tension headaches with Q-10 (oral capsules vs nasal formulation). The assay is classed as in vivo. The following applies: oral administration of from 600 to 800 mg of Q-10 in the form of capsules. An excerpt:
The spray according to the invention is preferably an oral or nasal spray, so that the administration of ubiquinone Qn or ubiquinone Qn precursors can be effected on an inhalative or intranasal route. The spray according to the invention is useful, in particular, for the treatment of pain conditions as encountered in migraine and neuropathy, in neural disorders, such as depressions, psychoses, lack of concentration, and in neurodegenerative diseases, such as Alzheimer's, Parkinson's, Huntington's, multiple sclerosis and cerebral paresis. The application as an oral or nasal spray seems to accelerate the transport of ubiquinone Qn or its precursors through the blood-brain barrier. […] In principle, however, doses of as high as 1000 mg can be employed.

In the case of `COC1=C(OC)C(=O)C(C/C=C(\C)CC/C=C(\C)CC/C=C(\C)CC/C=C(\C)CC/C=C(\C)CC/C=C(\C)CC/C=C(\C)CC/C=C(\C)CC/C=C(\C)CCC=C(C)C)=C(C)C1=O` [Q-10, 2,3-dimethoxy-5-methyl-6-deca-prenyl-1,4-benzoquinone], the effect on migraine entry is given as “virtually no effect”.

(Values after patent publication US20050019268A1, “Spray containing ubiquinone Qn” (MSE Pharmazeutika GmbH, priority 1999, published 2005).)
